Reference: US20220023303A1 (DSM IP Assets B.V., priority 2018, published 2022)

Legend:
Type in all cases: in vivo, humans
U.S. adults [1] = assay: NHANES: self-reported urgency to empty the bowels by total riboflavin intake; details: highest two quartiles of riboflavin intake, FIG. 4
Protocol: (§1) For this analysis, data from adults aged 20 years and over in the survey years 2005-2010 were selected. Participants were selected using a complex, multi-stage probability sampling design to produce a representative sample. Demographic information (gender, age, ethnicity, education, poverty-income ratio) was provided by self-report during an interview conducted by a trained interviewer in the participant's home. Questions relating to Bowel Health were administered to adults aged 20 years and older in the mobile examination center by means of a computer-assisted personal interviewing system. […] Pregnancy status in women aged 20 to 44 years was determined by self-report; negative responses were confirmed with a urinary pregnancy test. […]
(§2) The Bowel Health questionnaire in survey cycles 2005-2006 and 2007-2008 consisted of six questions: four relate to the assessment of the Fecal Incontinence Severity Index (Rockwood, et al 1999 Dis Colon Rectum 42, 1525-1532) one question requests participants' self-reported weekly bowel motion frequency, and one question was about normal stool type on the Bristol Stool Scale (Lewis et al 1997 Scand J Gastroenterol 32: 920-924). A Fecal Incontinence Intensity Score (FISI) was calculated and binned into four categories using the RANK procedure to obtain approximately equal categories. […]

U.S. adults [2] = assay: NHANES: normalcy of bowel motion frequency (3-21 bowel motions per week) by riboflavin intake quartiles; details: as riboflavin intake increases, food and total riboflavin, FIG. 2
Protocol: as §1, §2

U.S. adults [3] = assay: NHANES: self-reported common stool type (Bristol Stool Scale) by quartiles of riboflavin intake; details: as riboflavin intake increases (quartiles), FIG. 1
Protocol: as §1, §2

U.S. adults [4] = assay: NHANES 2005-2010 observational analysis: linear regression of self-reported bowel motion frequency on riboflavin intake
Protocol: Data were obtained from NHANES, a representative survey that measures the health and nutritional status of the U.S. non-institutionalized population. Research protocols were reviewed and approved by the National Center for Health Statistics Research Ethics Review Board (protocol #2005-2006). Ethical review of the protocols used in NHANES protocols is conducted annually, with ongoing changes submitted through an amendment process. All participants gave written consent before participation. Information that could potentially identify participants is removed before data is made publicly available.
For this analysis, data from adults aged 20 years and over in the survey years 2005-2010 were selected. Participants were selected using a complex, multi-stage probability sampling design to produce a representative sample. Demographic information (gender, age, ethnicity, education, poverty-income ratio) was provided by self-report during an interview conducted by a trained interviewer in the participant's home. Questions relating to Bowel Health were administered to adults aged 20 years and older in the mobile examination center by means of a computer-assisted personal interviewing system. Dietary assessment was conducted by means of two 24-hour dietary recalls, the first conducted in-person at the mobile examination center, and the second conducted by telephone 3 to 10 days after the dietary interview but not on the same day of the week. Pregnancy status in women aged 20 to 44 years was determined by self-report; negative responses were confirmed with a urinary pregnancy test. […] For the survey cycles 2007-2010, the total supplemental intake based on the 30 days questionnaire was also used, based on the totals provided in the dataset. Subjects who self-reported inflammatory bowel disease were excluded.
The Bowel Health questionnaire in survey cycles 2005-2006 and 2007-2008 consisted of six questions: four relate to the assessment of the Fecal Incontinence Severity Index (Rockwood, et al 1999 Dis Colon Rectum 42, 1525-1532) one question requests participants' self-reported weekly bowel motion frequency, and one question was about normal stool type on the Bristol Stool Scale (Lewis et al 1997 Scand J Gastroenterol 32: 920-924). A Fecal Incontinence Intensity Score (FISI) was calculated and binned into four categories using the RANK procedure to obtain approximately equal categories. In the 2009-2010 survey cycle, questions about bowel evacuation urgency, constipation and diarrhea incidence over the previous year, and laxative use over the past 30 days, were added.
Statistical analyses were performed using SAS version 9.3 (SAS Institute Inc., Cary, N.C., USA). Statistical significance was set at 0.05.
Gender, ethnicity, education, age (continuous), Poverty-Income Ratio (PIR, continuous) were included in the socio-demographic chunk, and vigorous physical activity over the past 30 days (Y/N), dietary supplement use (Y/N), fiber and moisture intake (continuous), self-report of thyroid problems (Y/N) and use of prescription medication (1 or less vs 2 or more) were included in the diet and health chunk.
The final linear regression using significant predictors was performed using […] to generate the correct variance estimation that takes the complex survey design into account.

[5] = Adjusted model (demographics): gender, age, education, Poverty-Income Ratio, ethnicity
[6] = Adjusted model (diet/health): prescription medications, thyroid problem, fiber and moisture intake
[7] = Adjusted model (full): all variables

`Cc1cc2nc3c(=O)[nH]c(=O)nc-3n(C[C@H](O)[C@H](O)[C@H](O)CO)c2cc1C` [riboflavin] was tested, and the “Number of respondents reporting bowel motion urgency occurs "rarely"” value (U.S. adults [1]) was “significant increase”, the “Proportion of the population with normal bowel motion patterns” value (U.S. adults [2]) was “increases” and the “Change in stool type 4 (normal defecation)” value (U.S. adults [3]) was “increase”. For the same compound, the “Change in stool types 2 (slow transit time) and 5 (soft-fluid stool)” value (U.S. adults [3]) was “reduction”, the “Beta-coefficient, bowel motion frequency, DS riboflavin intake” value (from here on “Beta-coefficient … DS riboflavin intake”) (U.S. adults [4]; [5]) was 0.0108 and the “Beta-coefficient, bowel motion frequency, Food riboflavin intake” value (from here on “Beta-coefficient … Food riboflavin intake”) (U.S. adults [4]; [5]) was 0.253. The “Beta-coefficient, bowel motion frequency, Total riboflavin intake” value (“Beta-coefficient … Total riboflavin intake” below) (U.S. adults [4]; [5]) was 0.0130, the “Beta-coefficient … DS riboflavin intake” value (U.S. adults [4]; [6]) was 0.00807 and the “Beta-coefficient … Food riboflavin intake” value (U.S. adults [4]; [6]) was 0.0465. The “Beta-coefficient … Total riboflavin intake” value (U.S. adults [4]; [6]) was 0.00684, the “Beta-coefficient … DS riboflavin intake” value (U.S. adults [4]; [7]) was 0.00895 and the “Beta-coefficient … Food riboflavin intake” value (U.S. adults [4]; [7]) was 0.0191. The “Beta-coefficient … Total riboflavin intake” value (U.S. adults [4]; [7]) was 0.00974, the “Beta-coefficient … Food riboflavin intake” value (U.S. adults [4]; Crude model) was 0.355 and the “Beta-coefficient … Total riboflavin intake” value (U.S. adults [4]; Crude model) was 0.0113. The “Beta-coefficient … DS riboflavin intake” value (U.S. adults [4]; Crude model, dietary supplements) was 0.0101, the “Riboflavin intake at which effect on bowel health parameters was seen” value (U.S. adults [4]; above the median intake) was over 2.1 mg/day and the “Relationship between food riboflavin intake and bowel motion frequency” value (U.S. adults [4]; after adjusting for socio-demographic, diet and lifestyle co-factors) was “not significant”. For the same compound, the “Relationship between riboflavin intake and bowel motion frequency” value (U.S. adults [4]; crude model, intakes from food, dietary supplements and in total) was “significant, positive relationship”, the “Relationship between total riboflavin intake and bowel motion frequency, stratified by fiber intake” value (U.S. adults [4]; dietary fiber intake low, less than the median) was “no significant relationship” and the “Change in bowel motion frequency with riboflavin” value (U.S. adults [4]; fibre intakes in the upper three quartiles (above 9 g/day)) was “Increases”. The “Relationship between riboflavin intake from dietary supplements and in total, and bowel motion frequency” value (U.S. adults [4]; fully adjusted model) was “significant, positive relationship”, the “Riboflavin intake at which effect on bowel health parameters was especially seen” value (U.S. adults [4]; highest quartile of riboflavin intake) was over 3.1 mg/day and the “Relationship between total riboflavin intake and bowel motion frequency, stratified by fiber intake” value (U.S. adults [4]; top two quartiles of dietary fiber intake) was “only significant”.
